According to US9284319B2, “Heterocyclyl aminoimidazopyridazines” (BAYER INTELLECTUAL PROPERTY GMBH, priority 2011, dated 2016):

Tests used:
human full-length MKNK1 [1] = target: T1, human full-length MKNK1 (Homo sapiens (Human), UniProt Q9BUB5, T344D); assay: MKNK1 kinase assay (TR-FRET); type: biochemical; conditions: ATP 10 μM final; 15 min preincubation with enzyme
Method: MKNK1-inhibitory activity of compounds of the present invention was quantified employing the MKNK1 TR-FRET assay as described in the following paragraphs.
As substrate for the kinase reaction the biotinylated peptide biotin-Ahx-[…] (C-terminus in amide form) was used which can be purchased e.g. form the company Biosyntan (Berlin-Buch, Germany).
(§1) For the assay 50 nL of a 100 fold concentrated solution of the test compound in DMSO was pipetted into a black low volume 384 well microtiter plate (Greiner Bio-One, Frickenhausen, Germany), 2 μL of a solution of MKNK1 in aqueous assay buffer [50 mM HEPES pH 7.5, 5 mM magnesium chloride, 1.0 mM dithiothreitol, 0.005% (v/v) Nonidet-P40 (Sigma)] was added and the mixture was incubated for 15 min at 22° C. to allow pre-binding of the test compounds to the enzyme before the start of the kinase reaction. Then the kinase reaction was started by the addition of 3 μL of a solution of adenosine-tri-phosphate (ATP, 16.7 μM=>final conc. in the 5 μL assay volume is 10 μM) and substrate (0.1 μM=>final conc. in the 5 μL assay volume is 0.06 μM) in assay buffer and the resulting mixture was incubated for a reaction time of 45 min at 22° C. The concentration of MKNK1 was adjusted depending of the activity of the enzyme lot and was chosen appropriate to have the assay in the linear range, typical concentrations were in the range of 0.05 μg/mL. The reaction was stopped by the addition of 5 μL of a solution of TR-FRET detection reagents (5 nM streptavidine-XL665 [Cisbio Bioassays, Codolet, France] and 1 nM anti-ribosomal protein S6 (pSer236)-antibody from Invitrogen [#44921G] and 1 nM LANCE EU-W1024 labeled ProteinG [Perkin-Elmer, product no. AD0071]) in an aqueous EDTA-solution (100 mM EDTA, 0.1% (w/v) bovine serum albumin in 50 mM HEPES pH 7.5).
(§2) The resulting mixture was incubated for 1 h at 22° C. to allow the formation of complex between the phosphorylated biotinylated peptide and the detection reagents. Subsequently the amount of phosphorylated substrate was evaluated by measurement of the resonance energy transfer from the Eu-chelate to the streptavidine-XL. Therefore, the fluorescence emissions at 620 nm and 665 nm after excitation at 350 nm were measured in a TR-FRET reader, e.g. a Rubystar (BMG Labtechnologies, Offenburg, Germany) or a Viewlux (Perkin-Elmer). The ratio of the emissions at 665 nm and at 622 nm was taken as the measure for the amount of phosphorylated substrate.

human full-length MKNK1 [2] = target: T1, human full-length MKNK1; assay: MKNK1 kinase high ATP assay (TR-FRET); type: biochemical; conditions: ATP 2 mM final; 15 min preincubation with enzyme
Method: MKNK1 Kinase High ATP Assay
MKNK1-inhibitory activity at high ATP of compounds of the present invention after their preincubation with MKNK1 was quantified employing the TR-FRET-based MKNK1 high ATP assay as described in the following paragraphs.
As substrate for the kinase reaction the biotinylated peptide biotin-Ahx-[…] (C-terminus in amide form) was used, which can be purchased e.g. from the company Biosyntan (Berlin-Buch, Germany).
as §1, with “3.3 mM=>final” for “16.7 μM=>final”, “2 mM)” for “10 μM)”, “30” for “45”, “0.003” for “0.05”
as §2

T1 sequence (Q9BUB5 other isoform, or with tags, fused parts or gaps T344D): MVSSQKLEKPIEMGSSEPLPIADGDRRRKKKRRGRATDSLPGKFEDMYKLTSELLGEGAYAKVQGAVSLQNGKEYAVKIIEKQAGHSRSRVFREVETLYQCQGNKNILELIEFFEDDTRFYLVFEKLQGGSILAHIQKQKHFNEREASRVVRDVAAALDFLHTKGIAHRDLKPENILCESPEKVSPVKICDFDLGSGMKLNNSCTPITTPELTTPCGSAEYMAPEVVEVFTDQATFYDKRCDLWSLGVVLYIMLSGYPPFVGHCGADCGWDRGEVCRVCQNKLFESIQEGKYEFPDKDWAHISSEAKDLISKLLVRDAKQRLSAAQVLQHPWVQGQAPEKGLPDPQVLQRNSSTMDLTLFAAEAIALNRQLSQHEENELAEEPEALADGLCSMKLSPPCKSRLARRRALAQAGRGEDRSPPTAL

| SMILES | IC50 (human full-length MKNK1 [1]) [µM] | IC50 (human full-length MKNK1 [2]) [µM] |
| --- | --- | --- |
| OCC1CCCN(c2ccc3ncc(-c4cc5ccccc5o4)n3n2)C1 (stereo not drawn) [Example 5, {1-[3-(1-Benzofuran-2-yl)imidazo[1,2-b]pyridazin-6-yl]piperidin-3-yl}methanol] | 0.037 | 0.013 |
| OC1CN(c2ccc3ncc(-c4cc5ccccc5o4)n3n2)C1 [Example 6, 1-[3-(1-Benzofuran-2-yl)imidazo[1,2-b]pyridazin-6-yl]azetidin-3-ol] | 0.033 | 0.012 |
| O[C@@H]1CCCN(c2ccc3ncc(-c4cc5ccccc5o4)n3n2)C1 [Example 4, (3R)-1-[3-(1-Benzofuran-2-yl)imidazo[1,2-b]pyridazin-6-yl]piperidin-3-ol] | 0.044 | 0.015 |
| OC[C@H]1CCN(c2ccc3ncc(-c4cc5ccccc5o4)n3n2)C1 [Example 10, {(3S)-1-[3-(1-Benzofuran-2-yl)imidazo[1,2-b]pyridazin-6-yl]pyrrolidin-3-yl}methanol] | 0.02 |  |
| OC[C@H]1CCCN1c1ccc2ncc(-c3cc4ccccc4o3)n2n1 [Example 2, {(2R)-1-[3-(1-Benzofuran-2-yl)imidazo-[1,2-b]-pyridazin-6-yl]pyrrolidin-2-yl}-methanol] | 0.042 | 0.022 |

The next compounds have a lower IC50 (human full-length MKNK1 [1]) than those just listed; values first:

| IC50 (human full-length MKNK1 [1]) [µM] | IC50 (human full-length MKNK1 [2]) [µM] | SMILES |
| --- | --- | --- |
| 0.019 | 0.015 | O[C@H]1CCN(c2ccc3ncc(-c4cc5ccccc5o4)n3n2)C1 [Example 8, (3S)-1-[3-(1-Benzofuran-2-yl)imidazo[1,2-b]pyridazin-6-yl]pyrrolidin-3-ol] |
| 0.019 | 0.007 | OC[C@@H]1CCCN1c1ccc2ncc(-c3cc4ccccc4o3)n2n1 [Example 1, {(2S)-1-[3-(1-Benzofuran-2-yl)imidazo[1,2-b]pyridazin-6-yl]pyrrolidin-2-yl}methanol] |
| 0.017 | 0.006 | OC1CCN(c2ccc3ncc(-c4cc5ccccc5o4)n3n2)C1 (stereo not drawn) [Example 3, 1-[3-(1-Benzofuran-2-yl)imidazo[1,2-b]pyridazin-6-yl]pyrrolidin-3-ol] |
| 0.015 |  | O[C@@H]1CCN(c2ccc3ncc(-c4cc5ccccc5o4)n3n2)C1 [Example 9, (3R)-1-[3-(1-Benzofuran-2-yl)imidazo[1,2-b]pyridazin-6-yl]pyrrolidin-3-ol] |
| 0.014 | 0.004 | OC[C@@H]1CCN(c2ccc3ncc(-c4cc5ccccc5o4)n3n2)C1 [Example 7, {(3R)-1-[3-(1-Benzofuran-2-yl)imidazo[1,2-b]pyridazin-6-yl]pyrrolidin-3-yl}methanol] |
